± gives the expanded uncertainty stated by the source.
Experiment: xn = mol fraction of the nth substance listed
Details: 298.15 K, 101 kPa, Liquid

C=COCCC [propyl vinyl ether] + CCCO
Details	mass density [kg/m3]
x1 = 0.051	798.7 ± 0.3
x1 = 0.1008	796.3 ± 0.3
x1 = 0.2001	791.7 ± 0.3
x1 = 0.2995	787.3 ± 0.3
x1 = 0.4016	782.9 ± 0.3
x1 = 0.4983	779.1 ± 0.3
x1 = 0.5999	775.3 ± 0.3
x1 = 0.7013	771.8 ± 0.3
x1 = 0.7977	768.7 ± 0.3
x1 = 0.8977	765.7 ± 0.3
x1 = 0.9507	764.3 ± 0.3

C=COCCC [propyl vinyl ether] + CC(C)CC(C)(C)C
Details	mass density [kg/m3]
x1 = 0.0468	690 ± 0.4
x1 = 0.1011	692.6 ± 0.4
x1 = 0.1999	697.5 ± 0.3
x1 = 0.2997	703 ± 0.3
x1 = 0.399	709 ± 0.3
x1 = 0.5009	715.9 ± 0.3
x1 = 0.6008	723.4 ± 0.3
x1 = 0.7005	731.6 ± 0.3
x1 = 0.7997	740.8 ± 0.3
x1 = 0.8991	751.2 ± 0.3
x1 = 0.9507	757.1 ± 0.3

CC(C)CC(C)(C)C [2,2,4-trimethylpentane] + CCCO
Details	mass density [kg/m3]
x2 = 0.0531	690.2 ± 0.4
x2 = 0.098	692.4 ± 0.4
x2 = 0.1986	698.3 ± 0.3
x2 = 0.2981	705.1 ± 0.3
x2 = 0.3987	713.1 ± 0.3
x2 = 0.4987	722.3 ± 0.3
x2 = 0.5987	732.9 ± 0.3
x2 = 0.6994	745.8 ± 0.3
x2 = 0.8007	761 ± 0.3
x2 = 0.9	779.2 ± 0.3
x2 = 0.9499	789.6 ± 0.3
